test system: pentagastrin-stimulated acid secretion of the perfused rat stomach; test: Secretion-inhibiting action on the perfused rat stomach (pentagastrin-stimulated acid secretion); assay type: in vivo; conditions: anesthetized CD rat, dose 3.0 μmol/kg i.d.
Excerpt: In Table A which follows, the influence of the compounds of the formula 1 according to the invention on the pentagastrin-stimulated acid secretion of the perfused rat stomach after intraduodenal administration in vivo is shown.
The abdomen of anesthetized rats (CD rat, female, 200-250 g; 1.5 g/kg i.m. urethane) was opened after tracheotomy by a median upper abdominal incision and a PVC catheter was fixed transorally in the esophagus and another via the pylorus such that the ends of the tubes just projected into the gastric lumen. The catheter leading from the pylorus led outward into the right abdominal wall through a side opening.
After thorough rinsing (about 50-100 ml), warm (37° C.) physiological NaCl solution was continuously passed through the stomach (0.5 ml/min, pH 6.8-6.9; Braun-Unita I). The pH (pH meter 632, glass electrode EA 147; φ=5 mm, Metrohm) and, by titration with a freshly prepared 0.01 N NaOH solution to pH 7 (Dosimat 665 Metrohm), the secreted HCl were determined in the effluent in each case collected at an interval of 15 minutes.
The gastric secretion was stimulated by continuous infusion of […] (=1.65 ml/h) of i.v. pentagastrin (left femoral vein) about 30 min after the end of the operation (i.e. after determination of 2 preliminary fractions). The substances to be tested were administered intraduodenally in a 2.5 ml/kg liquid volume 60 min after the start of the continuous pentagastrin infusion. The body temperature of the animals was kept at a constant 37.8-38° C. by infrared irradiation and heat pads (automatic, stepless control by means of a rectal temperature sensor).

| Structure (SMILES) | Inhibition of acid secretion (%) |
| --- | --- |
| CCc1cccc(C)c1CNc1cc(C(=O)N(C)C)nc2c1nc(C)n2C [Example 2, 5-(Dimethylaminocarbonyl)-7-(2-ethyl-6-methylbenzyl)amino-2,3-dimethyl-3H-imidazo[4,5-b]pyridine] | >30 |
| CCc1cccc(C)c1CNc1ccnc2c1nc(C)n2C [Example 1, 7-(2-Ethyl-6-methylbenzyl)amino-2,3-dimethyl-3H-imidazo[4,5-b]pyridine] | >30 |
| CCc1cccc(C)c1CNc1cc(OC)nc2c1nc(C)n2C [Example 6, 7-(2-Ethyl-6-methylbenzyl)amino-5-methoxy-2,3-dimethyl-3H-imidazo[4,5-b]pyridine] | >30 |
| CCc1cccc(C)c1CNc1cc(C(N)=O)nc2c1nc(C)n2C [Example 3, 5-(Aminocarbonyl)-7-(2-ethyl-6-methylbenzyl)amino-2,3-dimethyl-3H-imidazo[4,5-b]pyridine] | >30 |
| CCc1cccc(C)c1CNc1cc(C(=O)NCCO)nc2c1nc(C)n2C [Example 5, 7-(2-Ethyl-6-methylbenzyl)amino-5-(2-hydroxyethylaminocarbonyl)-2,3-dimethyl-3H-imidazo[4,5-b]pyridine] | >30 |

test system: not given; test: not given; conditions: not given

| melting point [°C] | Structure (SMILES) |
| --- | --- |
| 105 to 109 | CCc1cccc(C)c1CNc1ccnc2c1nc(C)n2C [Example 1, 7-(2-Ethyl-6-methylbenzyl)amino-2,3-dimethyl-3H-imidazo[4,5-b]pyridine] |
| 235 to 238 | CCc1cccc(C)c1CNc1cc(C(=O)O)nc2c1nc(C)n2C [Example 10, 7-(2-ethyl-6-methylbenzyl)amino-2,3-dimethyl-3H-imidazo[4,5-b]pyridine-5-carboxylic Acid] |

Source: patent publication US20080119510A1, “Substituted Imidazo [4,5-B] Pyridines As Inhibitors Of Gastric Acid Secretion” (Altana Pharma AG, priority 2004, published 2008)
